# Test results taken from patent US20210045385A1, “PYRIDAZINONE-SUBSTITUTED KETOXIMES AS HERBICIDES” (FMC Corporation, priority 2018, published 2021).
# Experiments:
# Assay type in all cases: in vivo
# [1] = test system: duck salad (Heteranthera limosa); assay: Test D flooded paddy test, visual plant response rating; details: 250 g ai/ha, scale 0 to 100 (0 no effect, 100 complete control), 13 to 15 d
# How it was run: (§1)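 Greenhouse paddy assay scored on a 0–100 visual scale after 13 to 15 d, where 100 means complete control and a dash marks no result; dosing was into 3 cm floodwater over 2-leaf plants.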
# [2] = test system: sedge umbrella (small-flower umbrella sedge, Cyperus difformis); assay: as above; details: 250 g ai/ha, scale 0 to 100 (0 no effect, 100 complete control), 13 to 15 d
# How it was run: as §1
# [3] = test system: rice (Oryza sativa); assay: as above; details: 250 g ai/ha, scale 0 to 100 (0 no effect, 100 complete control), 13 to 15 d
# How it was run: as §1
# [4] = test system: barnyardgrass (Echinochloa crus-galli); assay: as above; details: 250 g ai/ha, scale 0 to 100 (0 no effect, 100 complete control), 13 to 15 d
# How it was run: as §1
# [5] = test system: kochia (Bassia scoparia); assay: Test C postemergence, visual plant response rating
# How it was run: (§2)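 Seeds sown in a loam–sand blend got a directed preemergence soil spray; postemergence plants (2–10 cm, one- to two-leaf stage) were sprayed with compound in a non-phytotoxic solvent plus surfactant. Injury was scored visually against untreated controls after about 10 d in a greenhouse on a 0–100 scale (100 = complete control).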
# [6] = test system: Italian ryegrass (Lolium mutiflorum); assay: Test C postemergence, visual plant response rating
# How it was run: as §2
# [7] = test system: ragweed (common ragweed, Ambrosia artemisiifolia); assay: Test C postemergence, visual plant response rating
# How it was run: as §2
# [8] = test system: corn (Zea mays); assay: Test C postemergence, visual plant response rating
# How it was run: as §2
# [9] = test system: blackgrass (Alopecurus myosuroides); assay: Test C postemergence, visual plant response rating
# How it was run: as §2
# [10] = test system: wheat (Triticum aestivum); assay: Test C postemergence, visual plant response rating
# How it was run: as §2
# [11] = test system: foxtail, giant (giant foxtail, Setaria faberi); assay: Test C postemergence, visual plant response rating
# How it was run: as §2
# [12] = test system: pigweed (Amaranthus retroflexus); assay: Test C postemergence, visual plant response rating
# How it was run: as §2
# [13] = test system: galium (catchweed bedstraw, Galium aparine); assay: Test C postemergence, visual plant response rating
# How it was run: as §2
# [14] = test system: barnyardgrass (Echinochloa crus-galli); assay: Test C postemergence, visual plant response rating
# How it was run: as §2
# [15] = test system: kochia (Bassia scoparia); assay: Test C preemergence, visual plant response rating
# How it was run: as §2
# [16] = test system: Italian ryegrass (Lolium mutiflorum); assay: Test C preemergence, visual plant response rating
# How it was run: as §2
# [17] = test system: ragweed (common ragweed, Ambrosia artemisiifolia); assay: Test C preemergence, visual plant response rating
# How it was run: as §2
# [18] = test system: foxtail, giant (giant foxtail, Setaria faberi); assay: Test C preemergence, visual plant response rating
# How it was run: as §2
# [19] = test system: pigweed (Amaranthus retroflexus); assay: Test C preemergence, visual plant response rating
# How it was run: as §2
# [20] = test system: barnyardgrass (Echinochloa crus-galli); assay: Test C preemergence, visual plant response rating
# How it was run: as §2
# [21] = Test C, postemergence, 125 g ai/ha
# [22] = Test C, 31 g ai/ha, 0 is no effect, 100 is complete control
Compound,"Plant response rating, Ducksalad (Flood) [1]","Plant response rating, Sedge, Umbrella (Flood) [2]","Plant response rating, Rice (Flood) [3]","Plant response rating, Barnyardgrass (Flood) [4]","Kochia plant response rating (0 to 100 scale) ([5]; Postemergence, 31 g ai/ha)","Kochia plant response rating (0 to 100 scale) [5, 21]","Ryegrass, Italian plant response rating (0 to 100 scale) ([6]; Postemergence, 31 g ai/ha)","Ryegrass, Italian plant response rating (0 to 100 scale) [6, 21]","Ragweed plant response rating (0 to 100 scale) ([7]; Postemergence, 31 g ai/ha)","Ragweed plant response rating (0 to 100 scale) [7, 21]","Corn plant response rating (0 to 100 scale) ([8]; Postemergence, 31 g ai/ha)","Corn plant response rating (0 to 100 scale) [8, 21]","Blackgrass plant response rating (0 to 100 scale) ([9]; Postemergence, 31 g ai/ha)","Blackgrass plant response rating (0 to 100 scale) [9, 21]","Wheat plant response rating (0 to 100 scale) ([10]; Postemergence, 31 g ai/ha)","Wheat plant response rating (0 to 100 scale) [10, 21]","Foxtail, Giant plant response rating (0 to 100 scale) ([11]; Postemergence, 31 g ai/ha)","Foxtail, Giant plant response rating (0 to 100 scale) [11, 21]","Pigweed plant response rating (0 to 100 scale) ([12]; Postemergence, 31 g ai/ha)","Pigweed plant response rating (0 to 100 scale) [12, 21]",further results
CON=C(c1cc(C)cc(Cl)c1)c1c(O)c(C)nn(C)c1=O [Compound 174],0,0,0,0,70,90,60,100,80,90,10,20,30,40,0,0,50,90,60,80,"Galium plant response rating (0 to 100 scale) ([13]; Postemergence, 31 g ai/ha): 100; Galium plant response rating (0 to 100 scale) [13, 21]: 100; Barnyardgrass plant response rating (0 to 100 scale) ([14]; Postemergence, 31 g ai/ha): 60; Barnyardgrass plant response rating (0 to 100 scale) [14, 21]: 90; Kochia plant response rating (0 to 100 scale) ([15]; 125 g ai/ha): 80; Kochia plant response rating (0 to 100 scale) [15, 22]: 20; Ryegrass, Italian plant response rating (0 to 100 scale) ([16]; 125 g ai/ha): 90; Ryegrass, Italian plant response rating (0 to 100 scale) [16, 22]: 80; Ragweed plant response rating (0 to 100 scale) ([17]; 125 g ai/ha): 90; Ragweed plant response rating (0 to 100 scale) [17, 22]: 60; Foxtail, Giant plant response rating (0 to 100 scale) ([18]; 125 g ai/ha): 90; Foxtail, Giant plant response rating (0 to 100 scale) [18, 22]: 70; Pigweed plant response rating (0 to 100 scale) ([19]; 125 g ai/ha): 70; Pigweed plant response rating (0 to 100 scale) [19, 22]: 20; Barnyardgrass plant response rating (0 to 100 scale) ([20]; 125 g ai/ha): 90; Barnyardgrass plant response rating (0 to 100 scale) [20, 22]: 70"
CON=C(c1cc(Cl)cc(OC)c1)c1c(O)c(C)nn(C)c1=O [Compound 175],0,0,0,0,80,100,50,70,80,90,10,20,20,30,0,0,50,80,50,70,"Galium plant response rating (0 to 100 scale) ([13]; Postemergence, 31 g ai/ha): 90; Galium plant response rating (0 to 100 scale) [13, 21]: 100; Barnyardgrass plant response rating (0 to 100 scale) ([14]; Postemergence, 31 g ai/ha): 50; Barnyardgrass plant response rating (0 to 100 scale) [14, 21]: 70; Kochia plant response rating (0 to 100 scale) ([15]; 125 g ai/ha): 80; Kochia plant response rating (0 to 100 scale) [15, 22]: 40; Ryegrass, Italian plant response rating (0 to 100 scale) ([16]; 125 g ai/ha): 50; Ryegrass, Italian plant response rating (0 to 100 scale) [16, 22]: 30; Ragweed plant response rating (0 to 100 scale) ([17]; 125 g ai/ha): 100; Ragweed plant response rating (0 to 100 scale) [17, 22]: 40; Foxtail, Giant plant response rating (0 to 100 scale) ([18]; 125 g ai/ha): 70; Foxtail, Giant plant response rating (0 to 100 scale) [18, 22]: 30; Pigweed plant response rating (0 to 100 scale) ([19]; 125 g ai/ha): 30; Pigweed plant response rating (0 to 100 scale) [19, 22]: 0; Barnyardgrass plant response rating (0 to 100 scale) ([20]; 125 g ai/ha): 70; Barnyardgrass plant response rating (0 to 100 scale) [20, 22]: 50"
